Results taken from US5011851A, “Imidazole carboxylic acids and esters and inhibition of blood platelet aggregation therewith” (Bristol-Myers Squibb Co., priority 1990, dated 1991).
Values after ≈ are worked out from the molar mass of the structure shown. Like-named read-outs stand apart in the source and are kept apart here.

System: ADP-induced aggregation of human platelets
Assay type: cell-based
Settings: human platelet rich plasma, vs ADP, read-out: Inhibition of Human Platelet Aggregation IC50 Vs ADP
Procedure: IN VITRO INHIBITION OF HUMAN PLATELET AGGREGATION
The human volunteer donor's arm is cleansed with 70% ethyl alcohol. A sterile 20 ml syringe and needle are used to withdraw 20 ml of blood. The blood is immediately added to a test tube containing 3.8% sodium citrate to prevent clotting (1 part citrate to 9 parts blood).
Platelet rich plasma (PRP) was separated by centrifugation for 10 minutes at 1000 rpm (140 xg) from citrated (3.8%) human blood. All glassware used for preparation of PRP is silicon treated. ADP in final concentration of 0.5 meg/mL or 0.05 mL of a collagen suspension prepared according to the method described by Evans, G., et al., J. Exp. Med., 1968, 128, 877-894 was used to induce aggregation. The various compounds tested were dissolved in dimethylsulfoxide (DMSO) so that 5 mol added to the platelet rich plasma would yield the desired test concentration. Vehicle control trials were done and compared with aggregation induced in platelet rich plasma containing various concentrations of the test compounds. Dose response curves were obtained and Inhibitor Concentration (IC50) values calculated.

Compound | IC50 (Formula VIII compounds) [µg/mL] | IC50 (Formula II compounds) [µg/mL]
O=C(O)COc1cccc(CSc2nc(-c3ccccc3)c(-c3ccccc3)[nH]2)c1 [Example 5, [3-[[(4,5-Diphenyl-1H-imidazol-2-yl)thio]methyl]phenoxy]acetic Acid] | 0.41 (≈ 0.984 µM) | –
COC(=O)COc1cccc(CSc2nc(-c3ccccc3)c(-c3ccccc3)[nH]2)c1 [Example 4, Methyl [3-[[(4,5-diphenyl-1H-imidazol-2-yl)thio]methyl]phenoxy]acetate] | 0.42 (≈ 0.976 µM) | –
COC(=O)COc1cccc(CCc2nc(-c3ccccc3)c(-c3ccccc3)[nH]2)c1 [Example 1, Methyl [3-[2-(4,5-diphenyl-1H-imidazol-2-yl)ethyl]phenoxy]-acetate] | – | 2.4 (≈ 5.82 µM)
O=C(O)COc1cccc(CCc2nc(-c3ccccc3)c(-c3ccccc3)[nH]2)c1 [Example 2, [3-[2-(4,5-diphenyl-1H-imidazol-2-yl)ethyl]phenoxy]-acetic acid] | – | 1.2 (≈ 3.01 µM)
